From article PMC3909101, “Chemical Rescue and Inhibition Studies to Determine the Role of Arg301 in Phosphite Dehydrogenase” (PLoS ONE, 2014)
Values joined by “and” are separate entries in the source; they are usually repeats but may differ in a detail not shown here. Equal entries are not always repeated. “Also recorded” adds a separate entry of the source. Where two headings read alike, the source gives them in different places.

Key:
17X-PTDH-R301A [1] = molecular target: T1, 17X-PTDH-R301A (Stutzerimonas stutzeri (Pseudomonas stutzeri), UniProt O69054, D13E/E130K/I150F/M26I/Q132R/Q137R/R301A/V71I, form not given); type: biochemical, Pseudomonas stutzeri WM88; conditions: for Rescue of activity of the R301A mutant: exogenous reagent, unsuccessful ones tested at 20–100 mM depending on solubility; for k rescue/ K m, phosphite: R301A with saturating rescue reagent; for EC50: pH 7.25, 25°C, read-out: K R (concentration of rescue reagent at which half-maximal rate was observed); for K m, phosphite (apparent): rescue agent and NAD+ saturating (>10 K R)
T1 sequence (O69054 1-329 D13E/E130K/I150F/M26I/Q132R/Q137R/R301A/V71I): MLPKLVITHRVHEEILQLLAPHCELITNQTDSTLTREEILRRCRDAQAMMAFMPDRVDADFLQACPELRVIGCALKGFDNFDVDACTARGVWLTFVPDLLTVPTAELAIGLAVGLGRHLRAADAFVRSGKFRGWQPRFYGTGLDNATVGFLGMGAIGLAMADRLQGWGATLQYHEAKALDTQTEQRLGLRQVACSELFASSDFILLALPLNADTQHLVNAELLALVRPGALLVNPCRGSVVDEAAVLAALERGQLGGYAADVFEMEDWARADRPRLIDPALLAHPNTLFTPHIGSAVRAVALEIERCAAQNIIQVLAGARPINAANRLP

17X-PTDH [2] = assay: Phosphite dissociation constant for 17X-PTDH by the method of Klinman and Matthews; type: biochemical, Pseudomonas stutzeri WM88; conditions: calculated from ^D(V/K), ^DV and K m,Phosphite
R301A = assay: Phosphite Kd and Km for R301A; type: biochemical, Pseudomonas stutzeri WM88
17X-PTDH-R301A [3] = molecular target: T1, 17X-PTDH-R301A; type: biochemical, Pseudomonas stutzeri WM88; conditions: saturating rescue reagent (>20 K R), deuterated vs protiated phosphite, pH 7.25, 25°C
[4] = set-up: method as in earlier work; conditions: cited from earlier work
H292G mutant of wt-PTDH = H292G mutant of wt-PTDH (Stutzerimonas stutzeri, UniProt O69054, H292G); type: biochemical, Pseudomonas stutzeri WM88; conditions: 10–100 mM reagent
H292A mutant of wt-PTDH = H292A mutant of wt-PTDH (Stutzerimonas stutzeri, UniProt O69054, H292A); type: biochemical, Pseudomonas stutzeri WM88; conditions: 10–100 mM reagent
17X-PTDH-R301A [5] = molecular target: T1, 17X-PTDH-R301A; type: biochemical, Pseudomonas stutzeri WM88
[6] = Expected proportion of aminoguanidine in unprotonated and protonated states at various pH values; type: physicochemical
17X-PTDH-R301A [7] = molecular target: T1, 17X-PTDH-R301A; type: biochemical, Pseudomonas stutzeri WM88; conditions: pH 7.25, read-out: K is
17X-PTDH [8] = assay: Sulfite inhibition of 17X-PTDH; type: biochemical, Pseudomonas stutzeri WM88; conditions: competitive vs phosphite, 4 mM NAD+, pH 7.25, read-out: K is
Method: Reactions were performed in 100 mM MOPS (pH 7.25) at saturating concentrations of 4 mM NAD^+. Sodium sulfite was adjusted to the desired concentration by serial dilution from a 0.5 M stock solution. Sulfite concentration was adjusted to 0, 50, 100, 150, 200 or 300 µM for R301A or 0, 0.5, 1, 5, 10 or 20 µM for 17X-PTDH. An experiment was also performed with 17X-PTDH-R301A and saturating concentrations of 300 mM aminoguanidine, with sulfite concentrations of 0, 100, 200, 300, 400 or 500 µM. The reaction was initiated by addition of PTDH (0.1 µM final concentration, 5 µM for R301A). At each concentration of inhibitor, phosphite concentration was varied. The data was analyzed in GraFit 7.0 [28] using the equation for competitive inhibition (Equation 3) to fit all of the data, where I is the inhibitor concentration and K is the dissociation constant for a competitive inhibitor [29]. [drawing 5] (3)

[9] = wt enzyme, pH 7.25, cited from earlier work
[10] = wt enzyme, pH 7.25; ref (1) Relyea et al., 2005; cited from earlier work
[11] = R301A, k cat,apparent at saturating rescue reagent, 100 mM MOPS pH 7.25, 25°C, 4 mM NAD+
[12] = 0–2.0 mM aminoguanidine, 1 M phosphite, 4 mM NAD+, first experiment
[13] = repeat with a different batch of enzyme and reagents

In the case of CCN [ethylamine], the “Rescue of activity of the R301A mutant” value (17X-PTDH-R301A [1]) is reported as “not observed”.

With phosphite the Kd (17X-PTDH [2]) was 0.023 ± 0.006 mM, the “K m of phosphite” value (R301A; R301A, pH 8.0, no rescue agent) was 300 ± 35 mM and the Kd (R301A; calculated from ^D(V/K), ^DV and K m,Phosphite) was 13 ± 2 mM.

In the case of NC(N)=O [urea], the “Rescue of activity of the R301A mutant” value (17X-PTDH-R301A [1]) is reported as “not observed”.

With CC(=N)N [acetamidine] the “k rescue/ K m, phosphite” value (17X-PTDH-R301A [1]; pH 7.25) was 6.7 (1.1) M^−1 s^−1, the k rescue (17X-PTDH-R301A [1]; [11]) was 0.86 (0.08) s^−1 and the “[drawing 6] (Brønsted plot ordinate; uses K R corrected for free base concentration at pH 7.25)” value (17X-PTDH-R301A [1]; R301A, pH 7.25) was 6.3 (0.1). For the same molecule, the EC50 (17X-PTDH-R301A [1]; R301A) was 63 mM, the “K m, phosphite (apparent)” value (17X-PTDH-R301A [1]; R301A, pH 7.25) was 130 (20) mM and the “Rescue of activity of the R301A mutant” value (17X-PTDH-R301A [1]) was “markedly improved”. The “^D k cat” value (17X-PTDH-R301A [3]) was 1.5 (0.1), the “^D k cat/K m” value (17X-PTDH-R301A [3]) was 1.8 (0.6) and the “pK a (conjugate acid of rescue reagent)” value [4] was 12.5.

In the case of c1c[nH]cn1 [imidazole], the “Rescue of activity of H292G mutant” value (H292G mutant of wt-PTDH) is reported as “no activity; also recorded: failed to result in any activity” and the “Rescue of activity of H292A mutant” value (H292A mutant of wt-PTDH) is reported as “no activity; also recorded: failed to result in any activity”.

For NC(=O)NO [hydroxyurea], the “Rescue of activity of the R301A mutant” value (17X-PTDH-R301A [1]) was “not observed”.

In the case of CN=C(N)N [methylguanidine], the “k rescue/ K m, phosphite” value (17X-PTDH-R301A [1]; pH 7.25) is reported as 5.2 (1.1) M^−1 s^−1, the k rescue (17X-PTDH-R301A [1]; [11]) is reported as 0.68 (0.04) s^−1 and the “[drawing 6] (Brønsted plot ordinate; uses K R corrected for free base concentration at pH 7.25)” value (17X-PTDH-R301A [1]; R301A, pH 7.25) is reported as 7.2 (0.1). For the same molecule, the EC50 (17X-PTDH-R301A [1]; R301A) was 55 mM, the “K m, phosphite (apparent)” value (17X-PTDH-R301A [1]; R301A, pH 7.25) was 130 (30) mM and the “Rescue of activity of the R301A mutant” value (17X-PTDH-R301A [1]) was “markedly improved”. The “^D k cat” value (17X-PTDH-R301A [3]) was 1.4 (0.1), the “^D k cat/K m” value (17X-PTDH-R301A [3]) was 1.6 (0.5) and the “pK a (conjugate acid of rescue reagent)” value [4] was 13.4.

For CN [methylamine], the “Rescue of activity of H292G mutant” value (H292G mutant of wt-PTDH) was “no activity”, the “Rescue of activity of the R301A mutant” value (17X-PTDH-R301A [1]) was “not observed” and the “Rescue of activity of H292A mutant” value (H292A mutant of wt-PTDH) was “no activity”.

For N=C(N)N [guanidine], the “k rescue/ K m, phosphite” value (17X-PTDH-R301A [1]; pH 7.25) was 41 (4) M^−1 s^−1, the k rescue (17X-PTDH-R301A [1]; [11]) was 1.2 (0.1) s^−1 and the “[drawing 6] (Brønsted plot ordinate; uses K R corrected for free base concentration at pH 7.25)” value (17X-PTDH-R301A [1]; R301A, pH 7.25) was 8.1 (0.1). For the same molecule, the EC50 (17X-PTDH-R301A [1]; R301A) was 18 mM, the “K m, phosphite (apparent)” value (17X-PTDH-R301A [1]; R301A, pH 7.25) was 30 (3) mM and the “Rescue of activity of the R301A mutant” value (17X-PTDH-R301A [1]) was “markedly improved”. For the same molecule, the “^D k cat” value (17X-PTDH-R301A [3]) was 1.8 (0.1), the “^D k cat/K m” value (17X-PTDH-R301A [3]) was 2.3 (0.1) and the “pK a (conjugate acid of rescue reagent)” value [4] was 13.6.

With NC(N)=S [thiourea] the “Rescue of activity of the R301A mutant” value (17X-PTDH-R301A [1]) was “not observed”.

In the case of CCNC(=N)N [ethylguanidine], the k rescue (17X-PTDH-R301A [1]; [11]) is reported as 0.52 (0.13) s^−1, the “[drawing 6] (Brønsted plot ordinate; uses K R corrected for free base concentration at pH 7.25)” value (17X-PTDH-R301A [1]; R301A, pH 7.25) is reported as 6.1 (0.2) and the “Rescue of activity of the R301A mutant” value (17X-PTDH-R301A [1]) is reported as “markedly improved”. For the same molecule, the “pK a (conjugate acid of rescue reagent)” value [4] was 13.3.

With N=C(N)NN [aminoguanidine] the “k rescue/ K m, phosphite” value (17X-PTDH-R301A [1]; pH 7.25) was 180 (10) M^−1 s^−1, the k rescue (17X-PTDH-R301A [1]; [11]) was 1.4 (0.1) s^−1 and the “[drawing 6] (Brønsted plot ordinate; uses K R corrected for free base concentration at pH 7.25)” value (17X-PTDH-R301A [1]; R301A, pH 7.25) was 5.3 (0.1). The EC50 (17X-PTDH-R301A [1]; R301A) was 32 mM, the “K m, phosphite (apparent)” value (17X-PTDH-R301A [1]; R301A, pH 7.25) was 7.4 (0.5) mM and the “Activity with saturating rescue agent relative to wild-type activity” value (17X-PTDH-R301A [1]; R301A, saturating substrate and rescue agent) was “about 40%”. For the same molecule, the “Rescue of activity of the R301A mutant” value (17X-PTDH-R301A [1]) was “markedly improved”, the “^D k cat” value (17X-PTDH-R301A [3]) was 2.1 (0.1) and the “^D k cat/K m” value (17X-PTDH-R301A [3]) was 3.1 (0.3). The “pK a (conjugate acid of rescue reagent)” value [4] was 11.0, the “Ratio of slopes of k cat,apparent vs rescue agent concentration, pH 7.5 : pH 7.0” value (17X-PTDH-R301A [5]; [12]) was 1.2±0.1 and the “Ratio of slopes of k cat,apparent vs rescue agent concentration, pH 8.0 : pH 7.0” value (17X-PTDH-R301A [5]; [12]) was 3.7±0.3. For the same molecule, the “Ratio of slopes, pH 7.5 : pH 7.0” value (17X-PTDH-R301A [5]; [13]) was 1.6±0.1, the “Ratio of slopes, pH 8.0 : pH 7.0” value (17X-PTDH-R301A [5]; [13]) was 3.0±0.1 and the “Ratio of concentrations of reagent (pH 7.5 : pH 7), protonated” value [6] was 1.0. The “Ratio of concentrations of reagent (pH 7.5 : pH 7), unprotonated” value [6] was 3.2, the “Ratio of concentrations of reagent (pH 8 : pH 7), protonated” value [6] was 1.0 and the “Ratio of concentrations of reagent (pH 8 : pH 7), unprotonated” value [6] was 10.0. For the same molecule, the “Protonated (RNH3^+) proportion” value ([6]; pH 7.0) was 99.99%, the “Unprotonated (RNH2) proportion” value ([6]; pH 7.0) was 0.01% and the “Protonated (RNH3^+) proportion” value ([6]; pH 7.5) was 99.97%. For the same molecule, the “Unprotonated (RNH2) proportion” value ([6]; pH 7.5) was 0.03%, the “Protonated (RNH3^+) proportion” value ([6]; pH 8.0) was 99.90% and the “Unprotonated (RNH2) proportion” value ([6]; pH 8.0) was 0.10%.

For CCCCN [butylamine, n-butylamine], the “Rescue of activity of the R301A mutant” value (17X-PTDH-R301A [1]) was “not observed”.

For c1nc[nH]n1 [1,2,4-triazole], the “Rescue of activity of H292G mutant” value (H292G mutant of wt-PTDH) was “no activity; also recorded: failed to result in any activity” and the “Rescue of activity of H292A mutant” value (H292A mutant of wt-PTDH) was “no activity; also recorded: failed to result in any activity”.

O=S(O)O [sulfite] showed a Ki (17X-PTDH-R301A [7]; R301A + saturating 300 mM aminoguanidine) of 0.078 mM, a Ki (17X-PTDH-R301A [7]; R301A, competitive vs phosphite, 4 mM NAD+) of 0.13 mM and a Ki (17X-PTDH [8]) of 0.00031 mM.

In the case of N=C(N)NC(N)=O [N-guanylurea], the “[drawing 6] (Brønsted plot ordinate; uses K R corrected for free base concentration at pH 7.25)” value (17X-PTDH-R301A [1]; pH 7.25) is listed as −2.9 (0.2), the k rescue (17X-PTDH-R301A [1]; pH 7.25) is listed as 0.42 (0.07) s^−1 and the “pK a (conjugate acid of rescue reagent)” value [4] is listed as 3.9.

B1: wt enzyme: wild-type phosphite dehydrogenase from Pseudomonas stutzeri WM88 (protein, UniProt O69054 1-336, looked up)
Phosphonate dehydrogenase: MLPKLVITHRVHDEILQLLAPHCELMTNQTDSTLTREEILRRCRDAQAMMAFMPDRVDADFLQACPELRVVGCALKGFDNFDVDACTARGVWLTFVPDLLTVPTAELAIGLAVGLGRHLRAADAFVRSGEFQGWQPQFYGTGLDNATVGILGMGAIGLAMADRLQGWGATLQYHEAKALDTQTEQRLGLRQVACSELFASSDFILLALPLNADTQHLVNAELLALVRPGALLVNPCRGSVVDEAAVLAALERGQLGGYAADVFEMEDWARADRPRLIDPALLAHPNTLFTPHIGSAVRAVRLEIERCAAQNIIQVLAGARPINAANRLPKAEPAAC
For B1, the “solvent isotope effect (SIE) on k cat” value [9] is given as 1.55 and 1.55±0.07, the “observed combined SIE and substrate KIE on kcat” value ([9]; ref (1) Relyea et al., 2005) is given as 2.48 and the “substrate KIE on kcat” value [10] is given as 2.1.
